# Experimental data published in the CheMixHub viscosity set.
# ± gives the uncertainty stated by the source.
# Assay: xn = mol fraction of the nth substance listed
smiles,measurement,setting,value
CCN(CC)CC + Cc1cc(C)cc(C)c1,viscosity,"293.15 K, 101 kPa, x2 = 0.1033",0.386 ± 0.01 mPa·s
same,viscosity,"293.15 K, 101 kPa, x2 = 0.2154",0.41 ± 0.01 mPa·s
same,viscosity,"293.15 K, 101 kPa, x2 = 0.2645",0.422 ± 0.01 mPa·s
same,viscosity,"293.15 K, 101 kPa, x2 = 0.3959",0.453 ± 0.011 mPa·s
same,viscosity,"293.15 K, 101 kPa, x2 = 0.5072",0.484 ± 0.011 mPa·s
same,viscosity,"293.15 K, 101 kPa, x2 = 0.6007",0.517 ± 0.011 mPa·s
same,viscosity,"293.15 K, 101 kPa, x2 = 0.7132",0.56 ± 0.011 mPa·s
same,viscosity,"293.15 K, 101 kPa, x2 = 0.7989",0.593 ± 0.011 mPa·s
same,viscosity,"293.15 K, 101 kPa, x2 = 0.8692",0.628 ± 0.011 mPa·s
same,viscosity,"303.15 K, 101 kPa, x2 = 0.1033",0.35 ± 0.01 mPa·s
same,viscosity,"303.15 K, 101 kPa, x2 = 0.2154",0.369 ± 0.01 mPa·s
same,viscosity,"303.15 K, 101 kPa, x2 = 0.2645",0.378 ± 0.01 mPa·s
same,viscosity,"303.15 K, 101 kPa, x2 = 0.3959",0.407 ± 0.01 mPa·s
same,viscosity,"303.15 K, 101 kPa, x2 = 0.5072",0.432 ± 0.01 mPa·s
same,viscosity,"303.15 K, 101 kPa, x2 = 0.6007",0.462 ± 0.011 mPa·s
same,viscosity,"303.15 K, 101 kPa, x2 = 0.7132",0.497 ± 0.011 mPa·s
same,viscosity,"303.15 K, 101 kPa, x2 = 0.7989",0.526 ± 0.011 mPa·s
same,viscosity,"303.15 K, 101 kPa, x2 = 0.8692",0.557 ± 0.011 mPa·s
same,viscosity,"313.15 K, 101 kPa, x2 = 0.1033",0.315 ± 0.01 mPa·s
same,viscosity,"313.15 K, 101 kPa, x2 = 0.2154",0.334 ± 0.01 mPa·s
same,viscosity,"313.15 K, 101 kPa, x2 = 0.2645",0.342 ± 0.01 mPa·s
same,viscosity,"313.15 K, 101 kPa, x2 = 0.3959",0.368 ± 0.01 mPa·s
same,viscosity,"313.15 K, 101 kPa, x2 = 0.5072",0.391 ± 0.01 mPa·s
same,viscosity,"313.15 K, 101 kPa, x2 = 0.6007",0.416 ± 0.01 mPa·s
same,viscosity,"313.15 K, 101 kPa, x2 = 0.7132",0.449 ± 0.01 mPa·s
same,viscosity,"313.15 K, 101 kPa, x2 = 0.7989",0.473 ± 0.011 mPa·s
same,viscosity,"313.15 K, 101 kPa, x2 = 0.8692",0.5 ± 0.011 mPa·s
same,viscosity,"323.15 K, 101 kPa, x2 = 0.1033",0.288 ± 0.01 mPa·s
same,viscosity,"323.15 K, 101 kPa, x2 = 0.2154",0.304 ± 0.01 mPa·s
same,viscosity,"323.15 K, 101 kPa, x2 = 0.2645",0.312 ± 0.01 mPa·s
same,viscosity,"323.15 K, 101 kPa, x2 = 0.3959",0.335 ± 0.01 mPa·s
same,viscosity,"323.15 K, 101 kPa, x2 = 0.5072",0.357 ± 0.01 mPa·s
same,viscosity,"323.15 K, 101 kPa, x2 = 0.6007",0.378 ± 0.01 mPa·s
same,viscosity,"323.15 K, 101 kPa, x2 = 0.7132",0.407 ± 0.01 mPa·s
same,viscosity,"323.15 K, 101 kPa, x2 = 0.7989",0.429 ± 0.01 mPa·s
same,viscosity,"323.15 K, 101 kPa, x2 = 0.8692",0.452 ± 0.01 mPa·s
CC(C)[O-].CC(C)[O-].CC(C)[O-].CC(C)[O-].[Ti+4] + Cc1ccc(C)cc1,viscosity,"293.15 K, 101.3 kPa, x1 = 0.0401",0.671 ± 0.041 mPa·s
same,viscosity,"293.15 K, 101.3 kPa, x1 = 0.0871",0.7098 ± 0.043 mPa·s
same,viscosity,"293.15 K, 101.3 kPa, x1 = 0.1382",0.7652 ± 0.046 mPa·s
same,viscosity,"293.15 K, 101.3 kPa, x1 = 0.1994",0.8373 ± 0.051 mPa·s
same,viscosity,"293.15 K, 101.3 kPa, x1 = 0.2719",0.9143 ± 0.055 mPa·s
same,viscosity,"293.15 K, 101.3 kPa, x1 = 0.3593",1.042 ± 0.063 mPa·s
same,viscosity,"293.15 K, 101.3 kPa, x1 = 0.4654",1.235 ± 0.075 mPa·s
same,viscosity,"293.15 K, 101.3 kPa, x1 = 0.5987",1.53 ± 0.093 mPa·s
same,viscosity,"293.15 K, 101.3 kPa, x1 = 0.77",2.053 ± 0.12 mPa·s
same,viscosity,"303.15 K, 101.3 kPa, x1 = 0.0401",0.5881 ± 0.036 mPa·s
same,viscosity,"303.15 K, 101.3 kPa, x1 = 0.0871",0.6215 ± 0.038 mPa·s
same,viscosity,"303.15 K, 101.3 kPa, x1 = 0.1382",0.6649 ± 0.04 mPa·s
same,viscosity,"303.15 K, 101.3 kPa, x1 = 0.1994",0.7153 ± 0.043 mPa·s
same,viscosity,"303.15 K, 101.3 kPa, x1 = 0.2719",0.7695 ± 0.047 mPa·s
same,viscosity,"303.15 K, 101.3 kPa, x1 = 0.3593",0.855 ± 0.052 mPa·s
same,viscosity,"303.15 K, 101.3 kPa, x1 = 0.4654",0.9724 ± 0.059 mPa·s
same,viscosity,"303.15 K, 101.3 kPa, x1 = 0.5987",1.137 ± 0.069 mPa·s
same,viscosity,"303.15 K, 101.3 kPa, x1 = 0.77",1.398 ± 0.085 mPa·s
same,viscosity,"313.15 K, 101.3 kPa, x1 = 0.0401",0.5226 ± 0.032 mPa·s
same,viscosity,"313.15 K, 101.3 kPa, x1 = 0.0871",0.5494 ± 0.033 mPa·s
same,viscosity,"313.15 K, 101.3 kPa, x1 = 0.1382",0.5813 ± 0.035 mPa·s
same,viscosity,"313.15 K, 101.3 kPa, x1 = 0.1994",0.6238 ± 0.038 mPa·s
same,viscosity,"313.15 K, 101.3 kPa, x1 = 0.2719",0.6641 ± 0.04 mPa·s
same,viscosity,"313.15 K, 101.3 kPa, x1 = 0.3593",0.7258 ± 0.044 mPa·s
same,viscosity,"313.15 K, 101.3 kPa, x1 = 0.4654",0.8058 ± 0.049 mPa·s
same,viscosity,"313.15 K, 101.3 kPa, x1 = 0.5987",0.9111 ± 0.055 mPa·s
same,viscosity,"313.15 K, 101.3 kPa, x1 = 0.77",1.063 ± 0.064 mPa·s
same,viscosity,"323.15 K, 101.3 kPa, x1 = 0.0401",0.4655 ± 0.028 mPa·s
same,viscosity,"323.15 K, 101.3 kPa, x1 = 0.0871",0.4896 ± 0.03 mPa·s
same,viscosity,"323.15 K, 101.3 kPa, x1 = 0.1382",0.5162 ± 0.031 mPa·s
same,viscosity,"323.15 K, 101.3 kPa, x1 = 0.1994",0.5501 ± 0.034 mPa·s
same,viscosity,"323.15 K, 101.3 kPa, x1 = 0.2719",0.5849 ± 0.036 mPa·s
same,viscosity,"323.15 K, 101.3 kPa, x1 = 0.3593",0.6326 ± 0.038 mPa·s
same,viscosity,"323.15 K, 101.3 kPa, x1 = 0.4654",0.6922 ± 0.042 mPa·s
same,viscosity,"323.15 K, 101.3 kPa, x1 = 0.5987",0.7664 ± 0.047 mPa·s
same,viscosity,"323.15 K, 101.3 kPa, x1 = 0.77",0.871 ± 0.053 mPa·s
CCN(CC)CC + Cc1ccc(C)cc1,viscosity,"303.15 K, 101 kPa, x1 = 0.0103",0.5611 ± 0.0049 mPa·s
same,viscosity,"303.15 K, 101 kPa, x1 = 0.02055",0.5576 ± 0.0048 mPa·s
same,viscosity,"303.15 K, 101 kPa, x1 = 0.03043",0.5525 ± 0.0048 mPa·s
same,viscosity,"303.15 K, 101 kPa, x1 = 0.04261",0.5488 ± 0.0048 mPa·s
same,viscosity,"303.15 K, 101 kPa, x1 = 0.05408",0.5433 ± 0.0048 mPa·s
same,viscosity,"303.15 K, 101 kPa, x1 = 0.06646",0.5381 ± 0.0047 mPa·s
same,viscosity,"303.15 K, 101 kPa, x1 = 0.07602",0.5342 ± 0.0047 mPa·s
same,viscosity,"303.15 K, 101 kPa, x1 = 0.08463",0.5307 ± 0.0047 mPa·s
same,viscosity,"303.15 K, 101 kPa, x1 = 0.09589",0.5253 ± 0.0047 mPa·s
same,viscosity,"303.15 K, 101 kPa, x1 = 0.1075",0.5207 ± 0.0046 mPa·s
ClC(Cl)(Cl)Cl + Cc1ccc(C)cc1,viscosity,"298.15 K, 101 kPa, x2 = 0.1",0.87 ± 0.011 mPa·s
same,viscosity,"298.15 K, 101 kPa, x2 = 0.2",0.8339 ± 0.01 mPa·s
same,viscosity,"298.15 K, 101 kPa, x2 = 0.3",0.7997 ± 0.01 mPa·s
same,viscosity,"298.15 K, 101 kPa, x2 = 0.4",0.7675 ± 0.0097 mPa·s
same,viscosity,"298.15 K, 101 kPa, x2 = 0.5",0.7372 ± 0.0093 mPa·s
same,viscosity,"298.15 K, 101 kPa, x2 = 0.6",0.7087 ± 0.009 mPa·s
same,viscosity,"298.15 K, 101 kPa, x2 = 0.7",0.6816 ± 0.0086 mPa·s
same,viscosity,"298.15 K, 101 kPa, x2 = 0.8",0.6556 ± 0.0083 mPa·s
same,viscosity,"298.15 K, 101 kPa, x2 = 0.9",0.6301 ± 0.008 mPa·s
ClC(Cl)(Cl)Cl + Cc1cccc(C)c1,viscosity,"298.15 K, 101 kPa, x1 = 0.1974",0.609 ± 0.009 mPa·s
same,viscosity,"298.15 K, 101 kPa, x1 = 0.3803",0.665 ± 0.01 mPa·s
same,viscosity,"298.15 K, 101 kPa, x1 = 0.4687",0.716 ± 0.011 mPa·s
same,viscosity,"298.15 K, 101 kPa, x1 = 0.5267",0.751 ± 0.012 mPa·s
same,viscosity,"298.15 K, 101 kPa, x1 = 0.5964",0.792 ± 0.012 mPa·s
same,viscosity,"298.15 K, 101 kPa, x1 = 0.7155",0.851 ± 0.013 mPa·s
same,viscosity,"298.15 K, 101 kPa, x1 = 0.8693",0.894 ± 0.014 mPa·s
same,viscosity,"298.15 K, 101 kPa, x1 = 0.9105",0.902 ± 0.014 mPa·s
CCN(CC)CC + Cc1ccccc1,viscosity,"303.15 K, 101 kPa, x1 = 0.01196",0.5137 ± 0.0046 mPa·s
same,viscosity,"303.15 K, 101 kPa, x1 = 0.02231",0.5093 ± 0.0046 mPa·s
same,viscosity,"303.15 K, 101 kPa, x1 = 0.03105",0.5049 ± 0.0047 mPa·s
same,viscosity,"303.15 K, 101 kPa, x1 = 0.04186",0.4993 ± 0.0045 mPa·s
same,viscosity,"303.15 K, 101 kPa, x1 = 0.04881",0.4963 ± 0.0045 mPa·s
same,viscosity,"303.15 K, 101 kPa, x1 = 0.0617",0.4911 ± 0.0045 mPa·s
same,viscosity,"303.15 K, 101 kPa, x1 = 0.0685",0.4859 ± 0.0045 mPa·s
same,viscosity,"303.15 K, 101 kPa, x1 = 0.07915",0.4823 ± 0.0042 mPa·s
same,viscosity,"303.15 K, 101 kPa, x1 = 0.09159",0.4786 ± 0.0042 mPa·s
same,viscosity,"303.15 K, 101 kPa, x1 = 0.1002",0.4755 ± 0.0042 mPa·s
